Measurements taken from paper doi:10.1101/208439v1 (biorxiv, 2017).
pIC50: −log10 of the molar value.

What was measured:
[1] = molecular target: T1, PRMT4 (Homo sapiens, UniProt Q86X55); settings: read-out: DA3003-1 IC50; inhibitor
T1 construct: gene CARM1

[2] = molecular target: T2, GLP (Homo sapiens, UniProt Q9H9B1); assay: biochemical; settings: read-out: DA3003-1 IC50; inhibitor
T2 construct: gene EHMT1
T2 sequence (Q9H9B1 1-1298): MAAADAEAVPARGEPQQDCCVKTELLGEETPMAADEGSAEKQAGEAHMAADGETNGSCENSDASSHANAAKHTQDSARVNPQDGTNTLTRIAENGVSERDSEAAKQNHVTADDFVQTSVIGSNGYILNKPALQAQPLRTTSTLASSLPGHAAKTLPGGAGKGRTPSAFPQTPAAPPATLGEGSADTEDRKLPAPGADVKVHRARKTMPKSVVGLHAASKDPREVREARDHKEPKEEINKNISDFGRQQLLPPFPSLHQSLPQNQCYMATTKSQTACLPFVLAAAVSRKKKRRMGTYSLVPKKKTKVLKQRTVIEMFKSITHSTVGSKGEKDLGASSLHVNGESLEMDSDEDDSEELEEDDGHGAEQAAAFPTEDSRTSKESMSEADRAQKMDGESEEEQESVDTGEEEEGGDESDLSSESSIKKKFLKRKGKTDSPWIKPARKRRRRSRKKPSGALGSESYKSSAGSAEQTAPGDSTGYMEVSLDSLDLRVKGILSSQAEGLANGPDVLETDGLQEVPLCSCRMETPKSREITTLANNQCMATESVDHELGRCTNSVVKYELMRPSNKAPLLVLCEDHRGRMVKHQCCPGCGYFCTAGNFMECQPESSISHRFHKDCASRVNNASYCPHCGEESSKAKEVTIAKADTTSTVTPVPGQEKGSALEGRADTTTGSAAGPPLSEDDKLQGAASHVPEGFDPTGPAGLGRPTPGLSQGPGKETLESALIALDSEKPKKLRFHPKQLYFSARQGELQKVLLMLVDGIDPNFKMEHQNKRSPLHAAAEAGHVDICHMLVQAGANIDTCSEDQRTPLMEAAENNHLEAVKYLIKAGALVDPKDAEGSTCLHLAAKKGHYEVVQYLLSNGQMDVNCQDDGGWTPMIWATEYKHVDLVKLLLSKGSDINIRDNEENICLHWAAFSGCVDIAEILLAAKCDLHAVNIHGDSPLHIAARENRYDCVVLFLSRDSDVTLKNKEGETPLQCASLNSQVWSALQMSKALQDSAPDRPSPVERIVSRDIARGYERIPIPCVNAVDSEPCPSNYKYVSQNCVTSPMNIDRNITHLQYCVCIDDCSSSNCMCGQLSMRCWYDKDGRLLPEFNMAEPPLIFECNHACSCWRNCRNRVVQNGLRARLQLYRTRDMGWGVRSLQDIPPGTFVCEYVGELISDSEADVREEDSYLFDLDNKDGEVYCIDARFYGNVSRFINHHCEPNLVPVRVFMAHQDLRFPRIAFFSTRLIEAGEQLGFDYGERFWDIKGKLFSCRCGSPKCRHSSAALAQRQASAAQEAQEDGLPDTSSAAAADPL

[3] = molecular target: T3, PRMT5/MEP50 Complex (Homo sapiens, UniProt O14744); assay: HotSpot [3H]SAM filter-binding methyltransferase assay; type: biochemical; settings: histone H2A, […] SAM, pH […] DTT, […] °C, single experiment
T3 construct: coexpressed Flag-PRMT5 and His-MEP50, insect cell/baculovirus; with Methylosome protein WDR77
T3 sequence (O14744 2-637): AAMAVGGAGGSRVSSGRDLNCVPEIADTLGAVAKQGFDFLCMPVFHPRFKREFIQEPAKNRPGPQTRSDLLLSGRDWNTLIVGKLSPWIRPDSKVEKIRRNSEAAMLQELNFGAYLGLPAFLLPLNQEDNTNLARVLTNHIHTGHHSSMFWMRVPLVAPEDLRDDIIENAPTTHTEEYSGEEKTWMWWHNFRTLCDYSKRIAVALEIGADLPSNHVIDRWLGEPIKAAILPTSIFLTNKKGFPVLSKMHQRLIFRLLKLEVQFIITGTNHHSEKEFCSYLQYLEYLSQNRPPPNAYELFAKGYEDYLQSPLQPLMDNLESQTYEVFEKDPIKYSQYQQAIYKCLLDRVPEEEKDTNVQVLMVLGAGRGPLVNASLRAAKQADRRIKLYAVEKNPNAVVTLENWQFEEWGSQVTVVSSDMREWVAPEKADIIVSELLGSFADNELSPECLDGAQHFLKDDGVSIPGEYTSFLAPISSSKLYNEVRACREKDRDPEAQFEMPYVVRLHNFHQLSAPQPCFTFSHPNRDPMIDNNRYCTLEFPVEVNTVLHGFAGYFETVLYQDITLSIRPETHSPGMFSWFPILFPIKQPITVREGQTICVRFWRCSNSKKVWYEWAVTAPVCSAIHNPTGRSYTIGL
T3 sequence (Q9BQA1 2-342 partner): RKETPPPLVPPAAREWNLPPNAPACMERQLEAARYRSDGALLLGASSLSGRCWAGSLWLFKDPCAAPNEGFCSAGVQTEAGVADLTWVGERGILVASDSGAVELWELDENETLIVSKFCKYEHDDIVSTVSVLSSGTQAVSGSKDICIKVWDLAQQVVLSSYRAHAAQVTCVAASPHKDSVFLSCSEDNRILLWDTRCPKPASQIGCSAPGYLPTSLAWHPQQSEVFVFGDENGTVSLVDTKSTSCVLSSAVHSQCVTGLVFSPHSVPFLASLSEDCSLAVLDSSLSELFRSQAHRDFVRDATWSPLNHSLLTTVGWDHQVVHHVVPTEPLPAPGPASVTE

T1 sequence (Q86X55 whole entry): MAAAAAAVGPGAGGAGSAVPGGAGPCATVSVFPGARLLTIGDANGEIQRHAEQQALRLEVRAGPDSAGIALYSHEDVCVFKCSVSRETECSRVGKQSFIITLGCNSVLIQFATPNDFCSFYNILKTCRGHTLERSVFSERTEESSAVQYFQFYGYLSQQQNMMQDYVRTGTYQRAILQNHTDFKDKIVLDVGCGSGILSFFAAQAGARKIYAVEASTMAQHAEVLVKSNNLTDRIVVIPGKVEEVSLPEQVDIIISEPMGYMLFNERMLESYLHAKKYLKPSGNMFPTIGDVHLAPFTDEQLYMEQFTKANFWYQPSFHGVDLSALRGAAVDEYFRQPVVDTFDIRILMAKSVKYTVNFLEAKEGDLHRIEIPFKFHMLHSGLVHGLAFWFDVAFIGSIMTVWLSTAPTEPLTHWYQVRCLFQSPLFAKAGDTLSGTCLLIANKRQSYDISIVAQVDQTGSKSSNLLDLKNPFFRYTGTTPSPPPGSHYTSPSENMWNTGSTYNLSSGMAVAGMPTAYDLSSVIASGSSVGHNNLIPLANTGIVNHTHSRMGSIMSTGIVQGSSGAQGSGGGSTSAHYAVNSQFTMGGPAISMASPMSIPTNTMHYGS

| Structure (SMILES) | pIC50 [1] | pIC50 [2] | pIC50 [3] |
| --- | --- | --- | --- |
| O=C1C(Cl)=C(NCCN2CCOCC2)C(=O)c2ncccc21 [DA3003-1] | 5.85 | 4.44 | – |
| COc1cccc(-n2nc(C(=O)O)cc2-c2ccc(C3CCCCC3)c(Cl)c2)c1 [TC LPA5 4] | – | – | 6.48 |
